In ChEMBL document CHEMBL1909046, “DrugMatrix in vitro pharmacology data”:

Key:
[1] = biological target: T1, Alpha-2C adrenergic receptor (Homo sapiens, UniProt P18825); experiment: DRUGMATRIX: Adrenergic Alpha-2C radioligand binding (ligand: [3H] MK-912); type: cell membranes, Sf9, Membrane
T1 sequence (P18825 whole entry): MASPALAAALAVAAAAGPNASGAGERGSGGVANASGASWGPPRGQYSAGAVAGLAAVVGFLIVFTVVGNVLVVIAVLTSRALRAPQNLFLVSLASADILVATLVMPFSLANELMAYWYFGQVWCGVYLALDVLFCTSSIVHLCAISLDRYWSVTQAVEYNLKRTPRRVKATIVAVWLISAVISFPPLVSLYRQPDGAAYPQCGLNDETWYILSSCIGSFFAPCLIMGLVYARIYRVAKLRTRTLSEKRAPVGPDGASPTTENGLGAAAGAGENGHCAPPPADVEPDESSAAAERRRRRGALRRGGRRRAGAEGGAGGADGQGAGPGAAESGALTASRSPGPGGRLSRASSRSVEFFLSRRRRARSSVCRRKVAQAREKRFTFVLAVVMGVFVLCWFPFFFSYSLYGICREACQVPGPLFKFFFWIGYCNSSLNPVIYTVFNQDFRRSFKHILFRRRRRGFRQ

[2] = biological target: T2, C-X-C chemokine receptor type 1 (Homo sapiens, UniProt P25024); further: in other assays of this panel Not Active means under 50% inhibition at 10 µM
T2 sequence (P25024 whole entry): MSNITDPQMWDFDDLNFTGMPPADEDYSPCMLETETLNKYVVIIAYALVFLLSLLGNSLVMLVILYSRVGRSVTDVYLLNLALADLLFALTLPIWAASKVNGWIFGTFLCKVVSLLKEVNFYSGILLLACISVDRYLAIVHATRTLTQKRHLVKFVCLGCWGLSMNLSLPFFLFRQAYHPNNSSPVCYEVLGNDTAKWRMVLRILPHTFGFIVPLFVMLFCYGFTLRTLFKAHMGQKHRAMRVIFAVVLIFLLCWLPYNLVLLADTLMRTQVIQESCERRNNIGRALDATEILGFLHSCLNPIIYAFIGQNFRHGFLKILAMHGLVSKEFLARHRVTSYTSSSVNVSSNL

D(3) dopamine receptor = D(3) dopamine receptor (Homo sapiens, UniProt P35462); experiment: DRUGMATRIX: Dopamine D3 radioligand binding (ligand: [3H] Spiperone); type: cell membranes, CHO, Membrane
D(3) dopamine receptor, sequence (P35462 whole entry): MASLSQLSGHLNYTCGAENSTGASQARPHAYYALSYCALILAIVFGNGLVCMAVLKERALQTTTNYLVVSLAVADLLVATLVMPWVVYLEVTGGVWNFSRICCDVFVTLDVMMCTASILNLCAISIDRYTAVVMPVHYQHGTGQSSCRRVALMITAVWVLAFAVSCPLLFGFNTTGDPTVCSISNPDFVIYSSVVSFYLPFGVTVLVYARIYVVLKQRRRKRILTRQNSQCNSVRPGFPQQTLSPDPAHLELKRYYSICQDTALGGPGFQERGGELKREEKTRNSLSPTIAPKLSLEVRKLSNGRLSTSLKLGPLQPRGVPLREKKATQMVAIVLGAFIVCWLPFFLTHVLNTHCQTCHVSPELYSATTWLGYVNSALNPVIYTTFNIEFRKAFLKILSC

Mu-type opioid receptor = Mu-type opioid receptor (Homo sapiens, UniProt P35372); experiment: DRUGMATRIX: Opiate mu (OP3, MOP) radioligand binding (ligand: [3H] Diprenorphine); type: cell membranes, CHO-K1, Membrane; settings: Not Active = under 50% inhibition at 10 µM
Mu-type opioid receptor, sequence (P35372 whole entry): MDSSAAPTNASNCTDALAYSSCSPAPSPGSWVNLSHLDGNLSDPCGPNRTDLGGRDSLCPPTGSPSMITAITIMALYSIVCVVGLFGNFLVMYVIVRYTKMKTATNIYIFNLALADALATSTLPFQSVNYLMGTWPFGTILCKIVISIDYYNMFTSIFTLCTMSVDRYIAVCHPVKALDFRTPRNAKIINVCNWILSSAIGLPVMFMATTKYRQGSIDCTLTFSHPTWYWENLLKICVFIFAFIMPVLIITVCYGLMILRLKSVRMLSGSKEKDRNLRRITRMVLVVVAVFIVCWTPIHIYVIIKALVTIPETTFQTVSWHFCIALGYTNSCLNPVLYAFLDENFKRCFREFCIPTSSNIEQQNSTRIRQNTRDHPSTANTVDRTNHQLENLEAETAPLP

Caspase-1 = biological target: T3, Caspase-1 (Homo sapiens, UniProt P29466); design: species or system Escherichia coli;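 further: Caspase-1 enzyme inhibition assay with a peptide substrate; in other assays of this panel Not Active means under 50% inhibition at 10 µM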
T3 sequence (P29466 whole entry): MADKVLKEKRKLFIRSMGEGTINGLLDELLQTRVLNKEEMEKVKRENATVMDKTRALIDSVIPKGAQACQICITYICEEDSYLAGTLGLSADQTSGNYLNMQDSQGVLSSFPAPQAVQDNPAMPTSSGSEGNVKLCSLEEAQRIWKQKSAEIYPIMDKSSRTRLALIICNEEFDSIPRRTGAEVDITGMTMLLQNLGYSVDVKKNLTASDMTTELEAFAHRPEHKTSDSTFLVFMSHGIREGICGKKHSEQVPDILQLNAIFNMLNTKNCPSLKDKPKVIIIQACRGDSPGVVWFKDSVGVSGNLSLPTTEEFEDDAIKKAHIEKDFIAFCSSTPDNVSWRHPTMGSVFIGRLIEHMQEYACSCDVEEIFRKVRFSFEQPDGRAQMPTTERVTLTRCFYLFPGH

Adenosine receptor A1 = biological target: T4, Adenosine receptor A1 (Homo sapiens, UniProt P30542); type: cell membranes, CHO, Membrane; settings: cho;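 further: radioligand binding assay at the adenosine A1 receptor, with DPCPX serving as the labelled ligand; in other assays of this panel Not Active means under 50% inhibition at 10 µM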
T4 sequence (P30542 whole entry): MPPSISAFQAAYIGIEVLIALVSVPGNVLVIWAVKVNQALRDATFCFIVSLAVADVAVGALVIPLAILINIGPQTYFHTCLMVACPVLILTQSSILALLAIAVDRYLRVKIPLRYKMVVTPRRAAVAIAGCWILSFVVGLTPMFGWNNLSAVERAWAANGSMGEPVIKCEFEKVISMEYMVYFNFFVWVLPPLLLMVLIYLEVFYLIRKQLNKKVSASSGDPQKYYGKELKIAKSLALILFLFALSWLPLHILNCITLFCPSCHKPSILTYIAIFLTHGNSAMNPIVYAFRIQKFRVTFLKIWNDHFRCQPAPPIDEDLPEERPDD

Cytochrome P450 2A6 = biological target: T5, Cytochrome P450 2A6 (Homo sapiens, UniProt P11509); settings: bti-tn-5b1-4; further: in other assays of this panel Not Active means under 50% inhibition at 10 µM
T5 sequence (P11509 whole entry): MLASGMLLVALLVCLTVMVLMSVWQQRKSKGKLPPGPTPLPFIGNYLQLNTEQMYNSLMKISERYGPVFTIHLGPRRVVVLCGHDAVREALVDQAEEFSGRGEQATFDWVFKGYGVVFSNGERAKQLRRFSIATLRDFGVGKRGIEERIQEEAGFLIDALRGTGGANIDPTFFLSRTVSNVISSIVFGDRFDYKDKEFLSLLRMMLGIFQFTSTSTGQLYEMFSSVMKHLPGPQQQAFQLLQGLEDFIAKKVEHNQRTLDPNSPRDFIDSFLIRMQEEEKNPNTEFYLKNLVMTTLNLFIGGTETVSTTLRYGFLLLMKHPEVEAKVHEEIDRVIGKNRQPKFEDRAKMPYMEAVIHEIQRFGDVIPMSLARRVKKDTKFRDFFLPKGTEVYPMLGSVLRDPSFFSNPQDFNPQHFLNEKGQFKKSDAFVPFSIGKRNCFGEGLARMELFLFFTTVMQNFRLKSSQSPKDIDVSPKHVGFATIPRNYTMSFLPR

Compound | IC50 ([1]; sf9) | IC50 [2] | IC50 (D(3) dopamine receptor; read-out: IC50) | Ki (D(3) dopamine receptor; read-out: Ki) | Ki (Mu-type opioid receptor) | IC50 (Mu-type opioid receptor; read-out: IC50) | IC50 (Caspase-1) | IC50 (Adenosine receptor A1) | IC50 (Mu-type opioid receptor; cho-k1) | IC50 (Cytochrome P450 2A6) | Ki (Cytochrome P450 2A6) | IC50 (D(3) dopamine receptor; cho) | IC50 ([1]; read-out: IC50) | Ki ([1]; read-out: Ki) | Ki ([1]; sf9) | Ki [2] | Ki (D(3) dopamine receptor; cho) | Ki (Caspase-1) | Ki (Adenosine receptor A1)
Cc1c(C)c2c(c(C)c1O)CCC(C)(CN1CCN(c3cc(N4CCCC4)nc(N4CCCC4)n3)CC1)O2 (stereo not drawn) | Not Active | Not Active | 5200 nM | 1770 nM | 4360 nM | 10700 nM | Not Active | Not Active | – | – | – | – | – | – | – | – | – | – | –
COc1ccc(CCN(C)CCCC(C#N)(c2ccc(OC)c(OC)c2)C(C)C)cc1OC (stereo not drawn) | Not Active | Not Active | – | – | – | – | Not Active | Not Active | Not Active | Not Active | Not Active | – | – | – | – | – | – | – | –
CC(C)Cc1ccc([C@@H](C)C(=O)O)cc1 [(R)-IBUPROPHEN] | Not Active | Not Active | – | – | – | – | Not Active | Not Active | Not Active | Not Active | Not Active | Not Active | – | – | – | – | – | – | –
CN(C)CCOC(c1ccccc1)c1ccccc1 [DIPHENHYDRAMINE] | Not Active | Not Active | – | – | – | – | Not Active | Not Active | Not Active | – | – | Not Active | – | – | – | – | – | – | –
Clc1ccc(COC(Cn2ccnc2)c2ccc(Cl)cc2Cl)cc1 (stereo not drawn) [ECONAZOLE] | Not Active | Not Active | – | – | – | – | Not Active | – | – | Not Active | Not Active | – | – | – | – | – | – | – | –
CCN(CC)CCOc1ccc(/C(=C(/Cl)c2ccccc2)c2ccccc2)cc1 [ENCLOMIPHENE] | – | Not Active | – | – | – | – | Not Active | Not Active | Not Active | Not Active | Not Active | – | 1480 nM | 215 nM | – | – | – | – | –
Fc1ccc(C(c2ccc(F)cc2)N2CCN(C/C=C/c3ccccc3)CC2)cc1 [FLUNARIZINE] | – | Not Active | 97 nM | 33 nM | 2120 nM | 5240 nM | Not Active | Not Active | – | Not Active | Not Active | – | 222 nM | 32 nM | – | – | – | – | –
CNCCC(Oc1ccc(C(F)(F)F)cc1)c1ccccc1 (stereo not drawn) [FLUOXETINE] | Not Active | Not Active | – | – | – | – | Not Active | Not Active | Not Active | Not Active | Not Active | Not Active | – | – | – | – | – | – | –
Cc1ccc(NC(=O)c2ccc(CN3CCN(C)CC3)cc2)cc1Nc1nccc(-c2cccnc2)n1 [IMATINIB] | Not Active | Not Active | – | – | – | – | Not Active | Not Active | Not Active | Not Active | Not Active | Not Active | – | – | – | – | – | – | –
CC(C)Oc1ccc2c(=O)c(-c3ccccc3)coc2c1 [IPRIFLAVONE] | Not Active | Not Active | – | – | – | – | Not Active | Not Active | Not Active | Not Active | Not Active | Not Active | – | – | – | – | – | – | –
CC(C)NCC(O)c1ccc(O)c(O)c1 (stereo not drawn) [ISOPROTERENOL] | Not Active | Not Active | – | – | – | – | Not Active | Not Active | Not Active | Not Active | Not Active | Not Active | – | – | – | – | – | – | –
CNC1(c2ccccc2Cl)CCCCC1=O (stereo not drawn) [KETAMINE] | Not Active | Not Active | – | – | – | – | Not Active | Not Active | Not Active | Not Active | Not Active | Not Active | – | – | – | – | – | – | –
N#Cc1ccc(C(c2ccc(C#N)cc2)n2cncn2)cc1 [LETROZOLE] | Not Active | Not Active | – | – | – | – | Not Active | Not Active | Not Active | Not Active | Not Active | Not Active | – | – | – | – | – | – | –
CCN1CCC[C@H]1CNC(=O)c1cc(S(N)(=O)=O)ccc1OC [LEVOSULPIRIDE] | Not Active | Not Active | – | – | – | – | Not Active | Not Active | Not Active | Not Active | Not Active | – | – | – | – | – | – | – | –
CCN(CC)CC(=O)Nc1c(C)cccc1C [LIDOCAINE] | Not Active | Not Active | – | – | – | – | Not Active | Not Active | Not Active | Not Active | Not Active | Not Active | – | – | – | – | – | – | –
O=C1Nc2ccc(Cl)cc2C(c2ccccc2Cl)=NC1O (stereo not drawn) [LORAZEPAM] | Not Active | Not Active | – | – | – | – | Not Active | Not Active | Not Active | Not Active | Not Active | Not Active | – | – | – | – | – | – | –
CC[C@@H](C(=O)[C@@H](C)[C@@H](O)[C@H](C)[C@@H]1O[C@@H]([C@@H](CC)C(=O)O)CC[C@@H]1C)[C@H]1O[C@]2(C=C[C@@H](O)[C@]3(CC[C@@](C)([C@H]4CC[C@](O)(CC)[C@H](C)O4)O3)O2)[C@H](C)C[C@@H]1C [SALINOMYCIN] | Not Active | Not Active | – | – | – | – | Not Active | Not Active | – | Not Active | Not Active | Not Active | – | – | – | – | – | – | –
CN[C@H]1CC[C@@H](c2ccc(Cl)c(Cl)c2)c2ccccc21 [SERTRALINE] | – | Not Active | – | – | – | – | Not Active | Not Active | Not Active | Not Active | Not Active | Not Active | – | – | – | – | – | – | –
COc1cc2nc(N3CCN(C(=O)C4CCCO4)CC3)nc(N)c2cc1OC (stereo not drawn) [TERAZOSIN] | – | Not Active | – | – | – | – | Not Active | Not Active | Not Active | Not Active | Not Active | Not Active | – | – | – | – | – | – | –
Cn1c(=O)c2nc[nH]c2n(C)c1=O.O [THEOPHYLLINE] | Not Active | Not Active | – | – | – | – | Not Active | – | Not Active | Not Active | Not Active | Not Active | – | – | – | – | – | – | –
O=C(Nc1ccc(Br)cc1)c1cc(Br)cc(Br)c1O [TRIBROMSALAN] | Not Active | Not Active | – | – | – | – | Not Active | Not Active | – | Not Active | Not Active | Not Active | – | – | – | – | – | – | –
MANGANESE CHLORIDE ANHYDROUS | Not Active | Not Active | – | – | – | – | Not Active | Not Active | – | Not Active | Not Active | Not Active | – | – | Not Active | Not Active | Not Active | Not Active | Not Active
SODIUM ORTHOVANAD | Not Active | Not Active | – | – | – | – | Not Active | Not Active | – | Not Active | Not Active | Not Active | – | – | Not Active | Not Active | Not Active | Not Active | Not Active
